Legend:
[1] = system: chimeric TLR3/CD32a receptor lacking two N-glycosylation sites (N196 and N247); assay: NFκB luciferase reporter in HEK 293 cells co-transfected with chimeric TLR3/CD32a lacking two N-glycosylation sites; type: cell-based, human
Description: In order to determine the role of glycosylation in ligand recognition by TLR3, a chimeric TLR3/CD32a receptor lacking two N-glycosylation sites (N196 and N247 as numbered at Genbank Acc. No. NP_003256) was generated by site-directed mutagenesis and co-transfected into HEK 293 cells with a reporter plasmid containing concensus NFκB sites which, when activated, directs the expression of firefly luciferase.

[2] = system: chimeric TLR2/CD32a receptor; assay: Calcium mobilization in untransfected U937 cells or cells transfected with pTLR2/CD32a (specificity control); type: cell-based, human
Description: (§1) The hematopoietic cell line U937 was used for further biological investigation because of the ability of this cell line to display calcium mobilization upon cross-linking of endogenous CD32a using anti-CD32a antibodies followed by secondary antibody (as detected by fluorimetry following loading of the cells with Indo-1 or Fluo-4). Thus, U937 cells express all of the cellular components required for calcium mobilization mediated through CD32a activation.
(§2) Transient transfection of the pTLR3/CD32a and pTLR2/CD32a expression vectors into U937 allowed high level cell surface expression of the chimeric molecule as detected with anti-TLR3 or anti-TLR2 antibodies, while no expression was observed on untransfected cells or cells transfected with the other chimeric vector.

[3] = biological target: T1, chimeric TLR3/CD32a receptor (Homo sapiens, UniProt O15455); assay: Effect of extracellular pH on calcium mobilization in U937 cells expressing chimeric TLR3/CD32a; type: cell-based; conditions: pH range 5.5-7.5
T1 construct: expressed in transfected cells; host or cells: U937 cells, transiently or stably transfected with pTLR3/CD32a (pMET7 vector)
T1 sequence (O15455 with tags, fused parts or gaps): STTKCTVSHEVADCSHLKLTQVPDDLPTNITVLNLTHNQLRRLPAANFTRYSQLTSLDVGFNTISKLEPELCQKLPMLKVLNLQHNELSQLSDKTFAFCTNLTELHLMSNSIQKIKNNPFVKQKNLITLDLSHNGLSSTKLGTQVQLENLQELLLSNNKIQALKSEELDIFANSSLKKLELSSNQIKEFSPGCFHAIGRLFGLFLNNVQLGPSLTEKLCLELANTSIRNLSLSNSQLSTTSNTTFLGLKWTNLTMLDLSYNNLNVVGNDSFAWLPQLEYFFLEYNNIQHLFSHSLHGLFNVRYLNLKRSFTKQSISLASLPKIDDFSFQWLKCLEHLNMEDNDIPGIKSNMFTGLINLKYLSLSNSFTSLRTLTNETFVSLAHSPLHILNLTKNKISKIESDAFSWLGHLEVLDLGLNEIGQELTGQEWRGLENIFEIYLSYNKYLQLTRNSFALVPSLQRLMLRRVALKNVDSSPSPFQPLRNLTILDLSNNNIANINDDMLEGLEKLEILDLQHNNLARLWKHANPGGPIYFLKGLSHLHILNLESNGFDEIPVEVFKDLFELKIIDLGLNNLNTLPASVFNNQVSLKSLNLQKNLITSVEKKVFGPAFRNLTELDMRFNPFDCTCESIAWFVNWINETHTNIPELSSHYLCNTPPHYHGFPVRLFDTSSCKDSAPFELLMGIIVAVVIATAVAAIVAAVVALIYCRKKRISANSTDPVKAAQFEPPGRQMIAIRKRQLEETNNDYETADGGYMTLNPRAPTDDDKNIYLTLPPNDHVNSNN
Description: Wild type TLR3 has previously been described as an intracellular receptor, at least in dendritic cells (DC), and interaction with its ligand occurs in early endosomes. […] U937 cells expressing the chimeric human TLR3/CD32a receptor at the cell surface were used to investigate the effect of the extracellular pH on poly-IC-mediated calcium mobilization.

[4] = biological target: T1, chimeric TLR3/CD32a receptor; assay: Calcium mobilization in U937 cells transiently transfected with pTLR3/CD32a; type: cell-based
Description: as §1, §2
Poly-IC, a synthetic double-stranded RNA ligand for TLR3, was then tested for its ability to stimulate the chimeric TLR3/CD32a receptor. Poly(I) (15, 30 and 40 mers) and poly(C) (15, 30 and 40 mers) (Ambion, Huntingdon, Cambridgeshire, U.K. and Invitrogen, Cergy Pontoise, France respectively) were annealed in equal proportions according to their size for 15 minutes at 95° C. Independently, fragmentation of high molecular weight poly-IC (>5000 bp) was performed by metal-induced hydrolysis as recommended by Affymetrix (High Wycombe, UK). Briefly, 200 μg poly-IC was incubated with 40 μl of 5×RNA fragmentation buffer (200 mM Tris-acetate, pH 8.1, 500 mM KOAc, 150 mM MgOAc) in a final volume of 200 μl, for 35 min at […]. Fragmented poly-IC (100-200 bp) was then allowed to reach room temperature before purification. The relative sizes of dsRNA fragments were examined by electrophoresis in 2% agarose gel.

[5] = biological target: T1, chimeric TLR3/CD32a receptor; assay: Calcium mobilization in U937 clones stably transfected with pTLR3/CD32a; type: cell-based
Description: U937 cells were stably transfected with pTLR3/CD32a using co-transfection with an antibiotic-encoding plasmid and antibiotic selection followed by limiting dilution cloning. Clones were selected based on their cell surface expression level of TLR3. […] These clones expand very easily (up to 10^9 cells) and can be maintained for several months in culture without losing the expression of the chimeric receptor. […] Such stable clones provide a useful method for high through-put screening of candidate agents for the identification of TLR agonists and antagonists.

[6] = system: PBMC; assay: Cytokine induction in PBMC; type: cell-based

Chain of chimeric TLR2/CD32a receptor (as listed by the source, change not shown): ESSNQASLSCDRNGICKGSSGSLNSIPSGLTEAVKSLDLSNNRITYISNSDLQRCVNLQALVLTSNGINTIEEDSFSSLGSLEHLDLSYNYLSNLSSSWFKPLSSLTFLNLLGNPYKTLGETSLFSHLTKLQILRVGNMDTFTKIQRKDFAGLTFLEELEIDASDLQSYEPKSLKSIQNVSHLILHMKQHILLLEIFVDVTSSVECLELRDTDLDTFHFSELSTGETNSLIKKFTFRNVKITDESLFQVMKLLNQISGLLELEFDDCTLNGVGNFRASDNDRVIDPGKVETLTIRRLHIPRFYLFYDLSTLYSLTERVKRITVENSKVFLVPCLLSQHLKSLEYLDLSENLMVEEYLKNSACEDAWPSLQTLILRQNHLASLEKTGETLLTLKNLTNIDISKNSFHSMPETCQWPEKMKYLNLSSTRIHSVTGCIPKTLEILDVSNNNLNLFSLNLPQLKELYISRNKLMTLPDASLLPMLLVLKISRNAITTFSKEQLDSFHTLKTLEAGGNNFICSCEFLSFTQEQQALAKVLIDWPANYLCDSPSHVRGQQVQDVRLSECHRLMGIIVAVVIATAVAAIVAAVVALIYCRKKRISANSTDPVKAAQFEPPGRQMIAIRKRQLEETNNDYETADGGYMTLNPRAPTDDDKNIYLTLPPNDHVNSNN

**Q.** Which “activity on mutant TLR3 (NFκB luciferase reporter)” value [1] does the source give for poly-IC here?
**A.** completely inactive

**Q.** And the calcium mobilization [2]?
**A.** no calcium mobilization

**Q.** What about the “pH required for optimal response (calcium mobilization)” value [3] of the same substance?
**A.** 6.5

**Q.** What about the “pH that prevented biological response (calcium mobilization)” value [3] of the same substance?
**A.** ≥ 7.2

**Q.** And the calcium mobilization ([4]; U937 transiently transfected with pTLR3/CD32a, fluorimetry with Indo-1 or Fluo-4)?
**A.** immediate calcium mobilization of similar intensity to that induced by anti-TLR antibodies

**Q.** What about the “dose required to detect biological response (calcium mobilization)” value ([4]; dose response, transiently transfected U937) of the same substance?
**A.** 0.025 μg/ml

**Q.** And the “response to a second stimulation after sequential stimulation” value ([4]; optimal concentration, second stimulation with poly-IC or anti-TLR3-mediated cross-linking)?
**A.** desensitization

**Q.** And the “sensitivity in dose response (calcium mobilization)” value ([5]; stable U937 clones)?
**A.** 10 to 30 ng/mL

**Q.** What about the calcium mobilization ([5]; stable U937 clones with cell surface expression of the chimeric receptor) of the same substance?
**A.** robust calcium mobilization

**Q.** What about the “dose required to detect cytokine induction” value [6] of the same substance?
**A.** 2.5 µg/mL
